Reference: patent US12565522B2, “Micropeptide HMMW and application thereof” (NANJING ANJI BIOTECHNOLOGY CO., LTD., priority 2019, dated 2026)
No end group written: not given here.

What was measured:
Type in all cases: cell-based, human
Conditions in all cases: 24 h
[1] = test system: SW579 cells of thyroid cancer; assay: Matrigel transwell invasion test
Procedure, shortened: (§1)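 Inhibition rate was derived by comparing invaded-cell counts at 1, 4 or 16 μM peptide against 0 μM wells after 24 h invasion through Matrigel toward 10% FBS medium, cells seeded at 1×10^5 cells/mL without serum.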

[2] = test system: A549 cells of lung cancer; assay: Matrigel transwell invasion test
Procedure, shortened: as §1

[3] = test system: MGC803 cells of stomach cancer; assay: Matrigel transwell invasion test
Procedure, shortened: as §1

[4] = test system: UOK262 cells of kidney cancer; assay: Matrigel transwell invasion test
Procedure, shortened: as §1

[5] = test system: TE13 cells of esophageal squamous cell carcinoma; assay: Matrigel transwell invasion test
Procedure, shortened: as §1

[6] = test system: SCC4 cells of head and neck cancer; assay: Matrigel transwell invasion test
Procedure, shortened: as §1

[7] = test system: MDA-MB-231 cells of breast cancer; assay: Matrigel transwell invasion test
Procedure, shortened: as §1

[8] = test system: A431 cells of skin cancer; assay: Matrigel transwell invasion test
Procedure, shortened: as §1

[9] = test system: SW579 cells of thyroid cancer; assay: transwell migration test
[10] = test system: A549 cells of lung cancer; assay: transwell migration test
[11] = test system: MGC803 cells of stomach cancer; assay: transwell migration test
[12] = test system: UOK262 cells of kidney cancer; assay: transwell migration test
[13] = test system: TE13 cells of esophageal squamous cell carcinoma; assay: transwell migration test
[14] = test system: SCC4 cells of head and neck cancer; assay: transwell migration test
[15] = test system: MDA-MB-231 cells of breast cancer; assay: transwell migration test
[16] = test system: A431 cells of skin cancer; assay: transwell migration test

MERAGVPGFSPRRSSVEAKMQSTSCSVRKSSTVTAWPAVVLLLSWGQRRGG-OH [HMMW-I]
invasion inhibition rate ([1]; dose 1 μM): 19.63%
invasion inhibition rate ([1]; dose 4 μM): 44.76%
invasion inhibition rate ([1]; dose 16 μM): 64.89%
invasion inhibition rate ([2]; dose 1 μM): 31.23%
invasion inhibition rate ([2]; dose 4 μM): 51.32%
invasion inhibition rate ([2]; dose 16 μM): 64.08%
invasion inhibition rate ([3]; dose 1 μM): 26.12%
invasion inhibition rate ([3]; dose 4 μM): 50.08%
invasion inhibition rate ([3]; dose 16 μM): 68.62%
invasion inhibition rate ([4]; dose 1 μM): 33.80%
invasion inhibition rate ([4]; dose 4 μM): 53.12%
invasion inhibition rate ([4]; dose 16 μM): 66.67%
invasion inhibition rate ([5]; dose 1 μM): 20.43%
invasion inhibition rate ([5]; dose 4 μM): 42.86%
invasion inhibition rate ([5]; dose 16 μM): 66.51%
invasion inhibition rate ([6]; dose 1 μM): 20.75%
invasion inhibition rate ([6]; dose 4 μM): 46.24%
invasion inhibition rate ([6]; dose 16 μM): 74.84%
invasion inhibition rate ([7]; dose 1 μM): 27.97%
invasion inhibition rate ([7]; dose 4 μM): 48.95%
invasion inhibition rate ([7]; dose 16 μM): 70.49%
invasion inhibition rate ([8]; dose 1 μM): 32.74%
invasion inhibition rate ([8]; dose 4 μM): 51.22%
invasion inhibition rate ([8]; dose 16 μM): 69.37%
migration inhibition rate ([9]; dose 1 μM): 19.81%
migration inhibition rate ([9]; dose 4 μM): 51.03%
migration inhibition rate ([9]; dose 16 μM): 70.98%
migration inhibition rate ([10]; dose 1 μM): 35.00%
migration inhibition rate ([10]; dose 4 μM): 53.95%
migration inhibition rate ([10]; dose 16 μM): 73.46%
migration inhibition rate ([11]; dose 1 μM): 27.61%
migration inhibition rate ([11]; dose 4 μM): 53.45%
migration inhibition rate ([11]; dose 16 μM): 76.80%
migration inhibition rate ([12]; dose 1 μM): 15.39%
migration inhibition rate ([12]; dose 4 μM): 42.38%
migration inhibition rate ([12]; dose 16 μM): 71.47%
migration inhibition rate ([13]; dose 1 μM): 23.76%
migration inhibition rate ([13]; dose 4 μM): 42.29%
migration inhibition rate ([13]; dose 16 μM): 68.32%
migration inhibition rate ([14]; dose 1 μM): 17.85%
migration inhibition rate ([14]; dose 4 μM): 42.97%
migration inhibition rate ([14]; dose 16 μM): 77.00%
migration inhibition rate ([15]; dose 1 μM): 28.06%
migration inhibition rate ([15]; dose 4 μM): 50.34%
migration inhibition rate ([15]; dose 16 μM): 75.38%
migration inhibition rate ([16]; dose 1 μM): 33.19%
migration inhibition rate ([16]; dose 4 μM): 55.17%
migration inhibition rate ([16]; dose 16 μM): 73.22%

MGSTGVPGFSPRRSSVEAKMQSTSCSVRKSSTVTAWPAVVLLLSWGQRRGG-OH [HMMW-VII]
invasion inhibition rate ([1]; dose 1 μM): 20.11%
invasion inhibition rate ([1]; dose 4 μM): 43.72%
invasion inhibition rate ([1]; dose 16 μM): 63.71%
invasion inhibition rate ([2]; dose 1 μM): 32.22%
invasion inhibition rate ([2]; dose 4 μM): 52.42%
invasion inhibition rate ([2]; dose 16 μM): 64.02%
invasion inhibition rate ([3]; dose 1 μM): 29.50%
invasion inhibition rate ([3]; dose 4 μM): 54.34%
invasion inhibition rate ([3]; dose 16 μM): 69.57%
invasion inhibition rate ([4]; dose 1 μM): 36.74%
invasion inhibition rate ([4]; dose 4 μM): 56.26%
invasion inhibition rate ([4]; dose 16 μM): 67.62%
invasion inhibition rate ([5]; dose 1 μM): 25.11%
invasion inhibition rate ([5]; dose 4 μM): 45.36%
invasion inhibition rate ([5]; dose 16 μM): 67.52%
invasion inhibition rate ([6]; dose 1 μM): 19.70%
invasion inhibition rate ([6]; dose 4 μM): 43.11%
invasion inhibition rate ([6]; dose 16 μM): 70.84%
invasion inhibition rate ([7]; dose 1 μM): 27.91%
invasion inhibition rate ([7]; dose 4 μM): 49.55%
invasion inhibition rate ([7]; dose 16 μM): 74.32%
invasion inhibition rate ([8]; dose 1 μM): 34.70%
invasion inhibition rate ([8]; dose 4 μM): 55.51%
invasion inhibition rate ([8]; dose 16 μM): 69.24%
migration inhibition rate ([9]; dose 1 μM): 20.80%
migration inhibition rate ([9]; dose 4 μM): 53.13%
migration inhibition rate ([9]; dose 16 μM): 70.92%
migration inhibition rate ([10]; dose 1 μM): 35.01%
migration inhibition rate ([10]; dose 4 μM): 53.91%
migration inhibition rate ([10]; dose 16 μM): 71.36%
migration inhibition rate ([11]; dose 1 μM): 26.60%
migration inhibition rate ([11]; dose 4 μM): 51.31%
migration inhibition rate ([11]; dose 16 μM): 70.62%
migration inhibition rate ([12]; dose 1 μM): 19.24%
migration inhibition rate ([12]; dose 4 μM): 40.21%
migration inhibition rate ([12]; dose 16 μM): 72.40%
migration inhibition rate ([13]; dose 1 μM): 23.64%
migration inhibition rate ([13]; dose 4 μM): 41.21%
migration inhibition rate ([13]; dose 16 μM): 63.30%
migration inhibition rate ([14]; dose 1 μM): 17.42%
migration inhibition rate ([14]; dose 4 μM): 44.61%
migration inhibition rate ([14]; dose 16 μM): 72.34%
migration inhibition rate ([15]; dose 1 μM): 28.27%
migration inhibition rate ([15]; dose 4 μM): 50.14%
migration inhibition rate ([15]; dose 16 μM): 72.15%
migration inhibition rate ([16]; dose 1 μM): 32.10%
migration inhibition rate ([16]; dose 4 μM): 52.22%
migration inhibition rate ([16]; dose 16 μM): 70.11%

MERAGVPGFSPRRSSVEAKMQSTSCSVRKSSTVTAWPAVVLLLSWGKDDEE-OH [HMMW-IV]
invasion inhibition rate ([1]; dose 1 μM): 23.10%
invasion inhibition rate ([1]; dose 4 μM): 46.71%
invasion inhibition rate ([1]; dose 16 μM): 67.72%
invasion inhibition rate ([2]; dose 1 μM): 34.22%
invasion inhibition rate ([2]; dose 4 μM): 56.11%
invasion inhibition rate ([2]; dose 16 μM): 65.24%
invasion inhibition rate ([3]; dose 1 μM): 23.50%
invasion inhibition rate ([3]; dose 4 μM): 54.21%
invasion inhibition rate ([3]; dose 16 μM): 63.49%
invasion inhibition rate ([4]; dose 1 μM): 38.40%
invasion inhibition rate ([4]; dose 4 μM): 58.36%
invasion inhibition rate ([4]; dose 16 μM): 67.62%
invasion inhibition rate ([5]; dose 1 μM): 22.40%
invasion inhibition rate ([5]; dose 4 μM): 42.42%
invasion inhibition rate ([5]; dose 16 μM): 67.51%
invasion inhibition rate ([6]; dose 1 μM): 22.79%
invasion inhibition rate ([6]; dose 4 μM): 47.34%
invasion inhibition rate ([6]; dose 16 μM): 74.40%
invasion inhibition rate ([7]; dose 1 μM): 24.91%
invasion inhibition rate ([7]; dose 4 μM): 46.73%
invasion inhibition rate ([7]; dose 16 μM): 71.64%
invasion inhibition rate ([8]; dose 1 μM): 36.25%
invasion inhibition rate ([8]; dose 4 μM): 57.19%
invasion inhibition rate ([8]; dose 16 μM): 71.36%
migration inhibition rate ([9]; dose 1 μM): 18.81%
migration inhibition rate ([9]; dose 4 μM): 50.03%
migration inhibition rate ([9]; dose 16 μM): 71.91%
migration inhibition rate ([10]; dose 1 μM): 33.00%
migration inhibition rate ([10]; dose 4 μM): 52.91%
migration inhibition rate ([10]; dose 16 μM): 71.46%
migration inhibition rate ([11]; dose 1 μM): 25.60%
migration inhibition rate ([11]; dose 4 μM): 52.45%
migration inhibition rate ([11]; dose 16 μM): 74.80%
migration inhibition rate ([12]; dose 1 μM): 16.32%
migration inhibition rate ([12]; dose 4 μM): 41.38%
migration inhibition rate ([12]; dose 16 μM): 70.47%
migration inhibition rate ([13]; dose 1 μM): 22.76%
migration inhibition rate ([13]; dose 4 μM): 41.29%
migration inhibition rate ([13]; dose 16 μM): 65.32%
migration inhibition rate ([14]; dose 1 μM): 16.84%
migration inhibition rate ([14]; dose 4 μM): 43.91%
migration inhibition rate ([14]; dose 16 μM): 75.04%
migration inhibition rate ([15]; dose 1 μM): 29.06%
migration inhibition rate ([15]; dose 4 μM): 51.34%
migration inhibition rate ([15]; dose 16 μM): 73.38%
migration inhibition rate ([16]; dose 1 μM): 32.19%
migration inhibition rate ([16]; dose 4 μM): 54.17%
migration inhibition rate ([16]; dose 16 μM): 71.24%

MGRAGVPGFSPRRSSVEAKMQSTSCSVRKSSTVTAWPAVVLLLSWGQRRGG-OH [HMMW-IX]
invasion inhibition rate ([1]; dose 1 μM): 25.21%
invasion inhibition rate ([1]; dose 4 μM): 48.60%
invasion inhibition rate ([1]; dose 16 μM): 62.48%
invasion inhibition rate ([2]; dose 1 μM): 30.15%
invasion inhibition rate ([2]; dose 4 μM): 60.32%
invasion inhibition rate ([2]; dose 16 μM): 70.35%
invasion inhibition rate ([3]; dose 1 μM): 26.42%
invasion inhibition rate ([3]; dose 4 μM): 57.19%
invasion inhibition rate ([3]; dose 16 μM): 68.35%
invasion inhibition rate ([4]; dose 1 μM): 39.15%
invasion inhibition rate ([4]; dose 4 μM): 59.28%
invasion inhibition rate ([4]; dose 16 μM): 69.51%
invasion inhibition rate ([5]; dose 1 μM): 21.25%
invasion inhibition rate ([5]; dose 4 μM): 40.39%
invasion inhibition rate ([5]; dose 16 μM): 65.47%
invasion inhibition rate ([6]; dose 1 μM): 24.83%
invasion inhibition rate ([6]; dose 4 μM): 48.82%
invasion inhibition rate ([6]; dose 16 μM): 75.16%
invasion inhibition rate ([7]; dose 1 μM): 27.83%
invasion inhibition rate ([7]; dose 4 μM): 49.57%
invasion inhibition rate ([7]; dose 16 μM): 75.43%
invasion inhibition rate ([8]; dose 1 μM): 34.83%
invasion inhibition rate ([8]; dose 4 μM): 54.35%
invasion inhibition rate ([8]; dose 16 μM): 74.16%
migration inhibition rate ([9]; dose 1 μM): 17.81%
migration inhibition rate ([9]; dose 4 μM): 50.03%
migration inhibition rate ([9]; dose 16 μM): 71.98%
migration inhibition rate ([10]; dose 1 μM): 36.00%
migration inhibition rate ([10]; dose 4 μM): 52.95%
migration inhibition rate ([10]; dose 16 μM): 71.46%
migration inhibition rate ([11]; dose 1 μM): 25.61%
migration inhibition rate ([11]; dose 4 μM): 51.45%
migration inhibition rate ([11]; dose 16 μM): 74.80%
migration inhibition rate ([12]; dose 1 μM): 17.39%
migration inhibition rate ([12]; dose 4 μM): 43.38%
migration inhibition rate ([12]; dose 16 μM): 70.47%
migration inhibition rate ([13]; dose 1 μM): 21.76%
migration inhibition rate ([13]; dose 4 μM): 40.29%
migration inhibition rate ([13]; dose 16 μM): 65.32%
migration inhibition rate ([14]; dose 1 μM): 18.81%
migration inhibition rate ([14]; dose 4 μM): 43.97%
migration inhibition rate ([14]; dose 16 μM): 74.00%
migration inhibition rate ([15]; dose 1 μM): 26.06%
migration inhibition rate ([15]; dose 4 μM): 52.34%
migration inhibition rate ([15]; dose 16 μM): 73.38%
migration inhibition rate ([16]; dose 1 μM): 33.19%
migration inhibition rate ([16]; dose 4 μM): 55.17%
migration inhibition rate ([16]; dose 16 μM): 73.22%
